Measurements taken from PMC12040169 (PLOS Biology, 2025).

Assay: in vitro
Conditions: human, hela cells

Question: With `O=C(/C=C/c1ccc(N2N=N2)cc1)/C=C/c1ccc(N2N=N2)cc1` [CBK261638] as the molecule, how does the viability at 28.5 h, 10 µM read?
Answer: Its viability at 28.5 h, 10 µM is 105%.

Same assay, conditions: human, hela cells, % viability

Question: For `CN(CCO)C(=O)CCn1c(C(F)F)cc2cccnc21` [CBK282805], which viability at 28.5 h, 10 µM is on record?
Answer: Its viability at 28.5 h, 10 µM is 91.9%.

Question: With `CC(=O)Nc1ccc(C(=O)CSc2nc(-c3ccccc3)c(-c3ccccc3)o2)cc1` [CBK266168] as the molecule, how does the viability at 28.5 h, 10 µM read?
Answer: The viability at 28.5 h, 10 µM was 87.6%.

Question: Which viability at 28.5 h, 10 µM does the source give for `CN(C)C(=O)c1cccc(-c2cnc(N3CCOCC3)c3nccn23)c1` [CBK091261] here?
Answer: Its viability at 28.5 h, 10 µM is 101%.

Question: Which viability at 28.5 h, 10 µM does the source give for `Cc1ccnc2nc(C(=O)OC(C)C(=O)N3CCCC3)nn12` (stereo not drawn) [CBK306089] here?
Answer: The viability at 28.5 h, 10 µM was 88.9%.

Question: With `CC1CCN(S(=O)(=O)c2ccc(NC(=O)CCN3C(=O)c4ccccc4C3=O)cc2)CC1` [CBK265572] as the molecule, how does the viability at 28.5 h, 10 µM read?
Answer: The viability at 28.5 h, 10 µM was 98.8%.

Question: For `CCn1c2cc(C)sc2c2cnn(Cc3cccnc3)c(=O)c21` [CBK284169], which viability at 28.5 h, 10 µM is on record?
Answer: The viability at 28.5 h, 10 µM was 86.6%.

Question: With `CCC(Sc1nnc2c(n1)[nH]c1ccccc12)C(=O)Nc1sc2c(c1C#N)CCCC2` (stereo not drawn) [CBK263917] as the molecule, how does the viability at 28.5 h, 10 µM read?
Answer: The viability at 28.5 h, 10 µM was 80.3%.

Question: With `O=[N+]([O-])c1ccc2c(/C=N/c3ccc(-c4nc5ccccc5s4)cc3)c(O)ccc2c1` [CBK261483] as the molecule, how does the viability at 28.5 h, 10 µM read?
Answer: The viability at 28.5 h, 10 µM was 92.3%.

Question: For `COC(=O)c1c(-c2ccc(F)cc2)csc1NC(=O)CSc1ncnc2sc3c(c12)CCC3` [CBK265976], which viability at 28.5 h, 10 µM is on record?
Answer: Its viability at 28.5 h, 10 µM is 103%.

Question: With `Cc1c(Cl)cccc1NC(=O)C(=O)NCCCN1CCOCC1` [CBK263276] as the molecule, how does the viability at 28.5 h, 10 µM read?
Answer: The viability at 28.5 h, 10 µM was 109%.

Question: Which viability at 28.5 h, 10 µM does the source give for `CS(=O)(=O)Nc1nccnc1OC1CCN(CCc2c[nH]c3ccccc23)CC1` [CBK084282] here?
Answer: Its viability at 28.5 h, 10 µM is 119%.

Question: Which viability at 28.5 h, 10 µM does the source give for `COCCNC(=O)c1cc(-c2cc(C)oc2C)nc2c1cnn2C(C)C` [CBK305052] here?
Answer: Its viability at 28.5 h, 10 µM is 101%.

Question: Which viability at 28.5 h, 10 µM does the source give for `Cn1ccnc1C1(O)CCN(C(=O)NC2CCCCC2)CC1` [CBK282275] here?
Answer: The viability at 28.5 h, 10 µM was 91.8%.

Question: For `COc1ccc(CCNC(=O)c2cnc(-c3ccc(Cl)cc3)c(-c3cccc(CNC(C)=O)c3)c2)cc1OC` [CBK164413], which viability at 28.5 h, 10 µM is on record?
Answer: Its viability at 28.5 h, 10 µM is 95%.

Question: With `Cn1nc(C2CCN(C(=O)C3CCCC3)CC2)c2cccnc21` [CBK284899] as the molecule, how does the viability at 28.5 h, 10 µM read?
Answer: Its viability at 28.5 h, 10 µM is 101%.

Question: Which viability at 28.5 h, 10 µM does the source give for `CC(NC(=O)CCn1c(C(F)F)cc2cccnc21)c1ccncc1` (stereo not drawn) [CBK285069] here?
Answer: Its viability at 28.5 h, 10 µM is 91.6%.

Question: For `COc1ccccc1CN1CC[C@H]2NC(=O)CNC(=O)C3(C/C=C/C[C@H]2C1)CCN(C(C)=O)CC3` [CBK292107], which viability at 28.5 h, 10 µM is on record?
Answer: The viability at 28.5 h, 10 µM was 111%.

Question: Which viability at 28.5 h, 10 µM does the source give for `CC(C)(O)c1cc(CC2(NCC3CCCCC3)COC2)no1` [CBK289656] here?
Answer: The viability at 28.5 h, 10 µM was 89.7%.

Question: With `O=C(Cc1ccc(Cl)c(Cl)c1)N1CCN(C(=O)c2ccco2)CC1` [CBK144454] as the molecule, how does the viability at 28.5 h, 10 µM read?
Answer: Its viability at 28.5 h, 10 µM is 95.2%.

Question: With `Cc1ccc(-c2cc(C(=O)NCc3cnn(C)c3)c3cc(Br)ccc3n2)cc1` [CBK293959] as the molecule, how does the viability at 28.5 h, 10 µM read?
Answer: The viability at 28.5 h, 10 µM was 89.1%.

Question: Which viability at 28.5 h, 10 µM does the source give for `Cc1ccccc1-n1ncc2c(=O)n(Cc3ccccc3)cnc21` [CBK287690] here?
Answer: The viability at 28.5 h, 10 µM was 96.9%.

Question: With `O=C1NC/C=C/CC2(CCN(Cc3c[nH]c4ccccc34)CC2)C(=O)NCCOc2ccccc21` [CBK292085] as the molecule, how does the viability at 28.5 h, 10 µM read?
Answer: The viability at 28.5 h, 10 µM was 100%.

Question: For `CCc1cc2c(=O)c(-c3nc4ccccc4s3)coc2c(CN2CCCCC2)c1O` [CBK262284], which viability at 28.5 h, 10 µM is on record?
Answer: Its viability at 28.5 h, 10 µM is 86.1%.

Question: Which viability at 28.5 h, 10 µM does the source give for `NC(=O)c1ccccc1NC(=S)NC(=O)c1cc2ccccc2o1` [CBK265633] here?
Answer: The viability at 28.5 h, 10 µM was 81.3%.

Question: With `Cc1ccc(C(=O)N2CCN(c3ccc(NC(=O)c4ccc(-c5cccc([N+](=O)[O-])c5)o4)cc3)CC2)cc1` [CBK266355] as the molecule, how does the viability at 28.5 h, 10 µM read?
Answer: The viability at 28.5 h, 10 µM was 107%.

Question: With `CC(C)NC(=O)N1Cc2nc[nH]c2C[C@H]1c1nc(-c2ccc3c(c2)OCO3)no1` [CBK289001] as the molecule, how does the viability at 28.5 h, 10 µM read?
Answer: Its viability at 28.5 h, 10 µM is 94.5%.

Question: Which viability at 28.5 h, 10 µM does the source give for `O=C(Nc1ccccc1)N1Cc2nc[nH]c2C[C@H]1c1nc(-c2ccccc2)no1` [CBK288997] here?
Answer: The viability at 28.5 h, 10 µM was 84.3%.

Question: With `COC(=O)CO[C@@H]1CO[C@H]2[C@@H]1OC[C@@H]2NC(=S)Nc1ccccc1` [CBK289459] as the molecule, how does the viability at 28.5 h, 10 µM read?
Answer: The viability at 28.5 h, 10 µM was 88.3%.

Question: Which viability at 28.5 h, 10 µM does the source give for `CN1CCN(c2cc(N3CCN(C(=O)c4ccc(F)cc4F)CC3)c([N+](=O)[O-])cc2F)CC1` [CBK265280] here?
Answer: The viability at 28.5 h, 10 µM was 95.1%.

Question: Which viability at 28.5 h, 10 µM does the source give for `CN1CCN(c2nc(NS(=O)(=O)c3ccc(OC(F)(F)F)cc3)cc3ccccc23)CC1` [CBK002978C] here?
Answer: Its viability at 28.5 h, 10 µM is 87.7%.

Question: With `COCCCNC(=O)C1CCCN(c2nc3c(-c4ccc(C)cc4)csc3c(=O)[nH]2)C1` (stereo not drawn) [CBK215548] as the molecule, how does the viability at 28.5 h, 10 µM read?
Answer: Its viability at 28.5 h, 10 µM is 83.1%.

Question: Which viability at 28.5 h, 10 µM does the source give for `CN1CCN(c2ccc(-c3cncc(N4CCN(c5ccncc5)CC4)n3)cn2)CC1` [CBK065144] here?
Answer: Its viability at 28.5 h, 10 µM is 92.9%.

Question: With `CCc1n[nH]c(SCc2ccc(Br)cc2)n1` [CBK265221] as the molecule, how does the viability at 28.5 h, 10 µM read?
Answer: Its viability at 28.5 h, 10 µM is 90.9%.

Question: With `CC(=O)Nc1cc(NC(=O)CCCC(=O)O)ccc1Cl` [CBK263949] as the molecule, how does the viability at 28.5 h, 10 µM read?
Answer: Its viability at 28.5 h, 10 µM is 73.3%.

Question: Which viability at 28.5 h, 10 µM does the source give for `CCn1cnc2sc(-c3ccccc3)cc2c1=O` [CBK287952] here?
Answer: Its viability at 28.5 h, 10 µM is 65.7%.

Question: With `Cc1ccc(N(CC(=O)O)S(C)(=O)=O)cc1C` [CBK286978] as the molecule, how does the viability at 28.5 h, 10 µM read?
Answer: Its viability at 28.5 h, 10 µM is 87.1%.

Question: For `O=C1NCCN1CCOc1nccnc1/C=C/c1ccccc1` [CBK106879], which viability at 28.5 h, 10 µM is on record?
Answer: The viability at 28.5 h, 10 µM was 96%.

Question: For `CCOC(=O)C1CC1CN1CCN(S(=O)(=O)c2ccc(OCC)c3ncccc23)CC1` (stereo not drawn) [CBK062785], which viability at 28.5 h, 10 µM is on record?
Answer: Its viability at 28.5 h, 10 µM is 92.9%.

Question: With `CCOC(=O)C(C(=O)OCC)(N1CCOCC1)N1CCOCC1` [CBK261176] as the molecule, how does the viability at 28.5 h, 10 µM read?
Answer: Its viability at 28.5 h, 10 µM is 112%.

Question: For `COc1ccc(C(C)N(CCN2CCOCC2)C(=O)NCc2cccnc2)cc1OC` (stereo not drawn) [CBK158986], which viability at 28.5 h, 10 µM is on record?
Answer: The viability at 28.5 h, 10 µM was 114%.

Question: Which viability at 28.5 h, 10 µM does the source give for `CCN(CC)C(=O)CN1CCCN(c2cc(Oc3ccc(OC)c(OC)c3)ncn2)CC1` [CBK083359T] here?
Answer: Its viability at 28.5 h, 10 µM is 98.5%.
